Entries after “also recorded” stand apart in the source; their conditions may differ.
Tested on: SNc dopaminergic neurons
Assay: Whole cell patch clamp recordings of pacemaking in dopaminergic neurons in brain slices
Type: cell-based, mouse

## COC(=O)C1=C(C)NC(C)=C(C(=O)OC(C)C)C1c1cccc2nonc12 (stereo not drawn) [isradipine, 3,5-pyridinedicarboxylic acid, 4-(4-benzofurazanyl)-1,4-dihydro-2,6-dimethyl-, methyl 1-methylethyl ester]
Adult SNc dopaminergic neuron, before, during and after application, FIG. 4
  effect of sustained blockade on pacemaking (altered pacemaking mechanism): altered pacemaking mechanism can be elicited; also recorded: restores pacemaking and dopaminergic neuron cell function through an altered pacemaking mechanism

## COCCOC(=O)C1=C(C)NC(C)=C(C(=O)OC(C)C)C1c1cccc([N+](=O)[O-])c1 (stereo not drawn) [nimodipine, isopropyl 2-methoxyethyl 1,4-dihydro-2,6-dimethyl-4-(m-nitrophenyl)-3,5-pyridinedicarboxylate]
Tissue slice from an adult, FIG. 1
  effect on autonomous pacemaking of dopaminergic neurons: inhibits autonomous pacemaking of dopaminergic neurons

## NC1=N[C@H](O)[C@H]2[C@H]3O[C@]4(O)O[C@@H]([C@@H](O)[C@@]2(N1)[C@@H]4O)[C@]3(O)CO [tetrodotoxin]
  effect of blockade of TTX sensitive sodium channels on spikes and oscillations: eliminates spikes but not the underlying oscillations that drive pacemaking

— patent US20210177819A1, “METHODS AND COMPOSITIONS FOR MODULATING CALCIUM CHANNELS” (Northwestern University, priority 2005, published 2021)
